Tests used:
redroot pigweed = assay: Test A pre-/postemergence herbicide test; assay type: in vivo, Amaranthus retroflexus; details: for Plant response rating, Pigweed: Postemergence; for Pigweed plant response rating: Preemergence
Summary of the method: (§1)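 Plants are held in greenhouse about ten days after treatment, then compared with untreated controls and scored 0 (no effect) to 100 (complete control). Preemergence dosing is a directed soil spray on sown sandy loam; postemergence dosing is spray to runoff at 2–10 cm height.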

giant foxtail [1] = assay: Test A pre-/postemergence herbicide test; assay type: in vivo, Setaria faberi; details: for Plant response rating, Foxtail, Giant: Postemergence; for Foxtail, Giant plant response rating: Preemergence
Summary of the method: as §1

large crabgrass [2] = assay: Test A pre-/postemergence herbicide test; assay type: in vivo, Digitaria sanguinalis; details: for Plant response rating, Crabgrass, Large: Postemergence; for Crabgrass, Large plant response rating: Preemergence
Summary of the method: as §1

barnyardgrass [3] = assay: Test A pre-/postemergence herbicide test; assay type: in vivo, Echinochloa crus-galli; details: for Plant response rating, Barnyardgrass: Postemergence; for Barnyardgrass plant response rating: Preemergence
Summary of the method: as §1

[4] = system: small flower umbrella sedge; assay: Test B flooded paddy test; assay type: in vivo, Cyperus difformis; details: 1000 g ai/ha, visual rating, scale 0 to 100 (0 no effect, 100 complete control), 13 to 15 days
Summary of the method: (§2)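 After treating 2-leaf paddy plants or 2–18 cm postemergence plants (1 to 4 leaves) with formulated chemical, researchers kept them in a greenhouse for 13–15 days. Effects were judged visually versus controls: 0 indicates none, 100 total control.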

corn = assay: Test B pre-/postemergence herbicide test; assay type: in vivo, Zea mays; details: for Corn plant response rating: Preemergence, 500 g ai/ha, scale 0 to 100
Summary of the method: (§3)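 Test chemicals in a non-phytotoxic solvent mixture with surfactant were applied preemergence to seeded species and postemergence to plants 2-18 cm tall (1- to 4-leaf stage); rice and barnyardgrass were also tested in a flooded paddy at the 2-leaf stage. Visual rating versus controls after 13-15 days in greenhouse, scale 0 (no effect) to 100 (complete control).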

large crabgrass [5] = assay: Test B pre-/postemergence herbicide test; assay type: in vivo, Digitaria sanguinalis
Summary of the method: as §3

velvetleaf [6] = assay: Test B pre-/postemergence herbicide test; assay type: in vivo, Abutilon theophrasti
Summary of the method: as §3

lambsquarters = assay: Test B pre-/postemergence herbicide test; assay type: in vivo, Chenopodium album
Summary of the method: as §3

rice = assay: Test B flooded paddy test; assay type: in vivo, Oryza sativa; details: 1000 g ai/ha, visual rating, scale 0 to 100 (0 no effect, 100 complete control), 13 to 15 days
Summary of the method: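 Paddy species grown to the 2-leaf stage under flooding; blackgrass sprayed postemergence at 2–18 cm (1- to 4-leaf stage). Plants kept in a greenhouse for 13 to 15 days, then visually rated against controls on 0 (no effect) to 100 (complete control).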

pigweed = assay: Test B pre-/postemergence herbicide test; assay type: in vivo, Amaranthus retroflexus
Summary of the method: as §3

blackgrass = assay: Test B postemergence herbicide test; assay type: in vivo, Alopecurus myosuroides; details: scale 0 (no effect) to 100 (complete control); for Plant response rating, Blackgrass: 500 g ai/ha, visual rating after 13 to 15 days; for Blackgrass plant response rating: 125 g ai/ha
Summary of the method: as §2

cocklebur = assay: Test B pre-/postemergence herbicide test; assay type: in vivo, Xanthium strumarium
Summary of the method: (§4)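 Flooded paddy rice and barnyardgrass were treated at the 2-leaf stage; upland plantings received compound either on sown seed or on 1- to 4-leaf seedlings. All were kept 13–15 days in a greenhouse and scored visually, 0–100, relative to untreated plants.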

giant foxtail [7] = assay: Test B pre-/postemergence herbicide test; assay type: in vivo, Setaria faberi
Summary of the method: as §3

wild oat = assay: Test B postemergence herbicide test; assay type: in vivo, Avena fatua; details: scale 0 (no effect) to 100 (complete control); for Plant response rating, Oat, Wild: 500 g ai/ha, visual rating after 13 to 15 days; for Oat, Wild plant response rating: 125 g ai/ha
Summary of the method: (§5)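 Formulated test chemicals went onto postemergence plants measuring 2 to 18 cm, at one to four leaves. For the paddy assay, species had reached two leaves. Scoring took place 13–15 days later by eye, relative to untreated plants, using 0 for no effect up to 100 for full control.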

Surinam grass = assay: Test B pre-/postemergence herbicide test; assay type: in vivo, Urochloa decumbens
Summary of the method: as §3

velvetleaf [8] = assay: Test A pre-/postemergence herbicide test; assay type: in vivo, Abutilon theophrasti; details: for Plant response rating, Velvetleaf: Postemergence; for Velvetleaf plant response rating: Preemergence
Summary of the method: as §1

morningglory [9] = assay: Test A pre-/postemergence herbicide test; assay type: in vivo, Ipomoea spp.; details: for Plant response rating, Morningglory: Postemergence; for Morningglory plant response rating: Preemergence
Summary of the method: as §1

morningglory [10] = assay: Test B pre-/postemergence herbicide test; assay type: in vivo, Ipomoea coccinea
Summary of the method: as §4

wheat = assay: Test B postemergence herbicide test; assay type: in vivo, Triticum aestivum; design: key to Wheat plant response rating: 0 = no effect, 100 = complete control; details: scale 0 (no effect) to 100 (complete control); for Plant response rating, Wheat: Postemergence, 500 g ai/ha, visual rating after 13 to 15 days
Summary of the method: as §5

barnyardgrass [11] = assay: Test B flooded paddy test; assay type: in vivo, Echinochloa crus-galli; details: 1000 g ai/ha, visual rating, scale 0 to 100 (0 no effect, 100 complete control), 13 to 15 days
Summary of the method: as §2

ducksalad = assay: Test B flooded paddy test; assay type: in vivo, Heteranthera limosa; details: 1000 g ai/ha, visual rating, scale 0 to 100 (0 no effect, 100 complete control), 13 to 15 days
Summary of the method: as §2

barnyardgrass [12] = assay: Test B pre-/postemergence herbicide test; assay type: in vivo, Echinochloa crus-galli
Summary of the method: as §4

[13] = 500 g ai/ha, 0 to 100 scale, 0 no effect, 100 complete control
[14] = 2000 g ai/ha, 0 to 100 scale, 0 no effect, 100 complete control
[15] = 500 g ai/ha, visual rating, 0 to 100 scale (0 no effect, 100 complete control)
[16] = preemergence, 125 g ai/ha, 0 to 100 scale, 0 is no effect, 100 is complete control
[17] = Postemergence, 500 g ai/ha, visual rating after 13 to 15 days, scale 0 (no effect) to 100 (complete control)
[18] = Preemergence, 500 g ai/ha, scale 0 to 100
[19] = postemergence, 125 g ai/ha, visual rating, scale 0 (no effect) to 100 (complete control)
[20] = Postemergence, 125 g ai/ha, scale 0 (no effect) to 100 (complete control)

C=Cn1nc(C(C)(C)C)cc1C(=O)Nc1cccc(C(=O)OCC)c1 [Compound 78]
Plant response rating, Pigweed (redroot pigweed; [13]): 85 | Plant response rating, Pigweed (redroot pigweed; [14]): 90 | Pigweed plant response rating (redroot pigweed; [15]): 80 | Pigweed plant response rating (redroot pigweed; [14]): 90 | Plant response rating, Foxtail, Giant (giant foxtail [1]; [13]): 20 | Plant response rating, Foxtail, Giant (giant foxtail [1]; [14]): 60 | Foxtail, Giant plant response rating (giant foxtail [1]; [15]): 55 | Foxtail, Giant plant response rating (giant foxtail [1]; [14]): 70 | Plant response rating, Crabgrass, Large (large crabgrass [2]; [13]): 20 | Plant response rating, Crabgrass, Large (large crabgrass [2]; [14]): 35 | Crabgrass, Large plant response rating (large crabgrass [2]; [15]): 60 | Crabgrass, Large plant response rating (large crabgrass [2]; [14]): 90 | Plant response rating, Barnyardgrass (barnyardgrass [3]; [13]): 30 | Plant response rating, Barnyardgrass (barnyardgrass [3]; [14]): 40 | Barnyardgrass plant response rating (barnyardgrass [3]; [15]): 20 | Barnyardgrass plant response rating (barnyardgrass [3]; [14]): 45 | Sedge, Umbrella plant response rating [4]: 80 | Corn plant response rating (corn): 0 | Plant response rating, Corn (corn; [16]): 0 | Plant response rating, Crabgrass, Large (large crabgrass [5]; [17]): 30 | Crabgrass, Large plant response rating (large crabgrass [5]; [18]): 10 | Crabgrass, Large plant response rating (large crabgrass [5]; [19]): 20 | Plant response rating, Crabgrass, Large (large crabgrass [5]; [16]): 0 | Plant response rating, Velvetleaf (velvetleaf [6]; [17]): 80 | Velvetleaf plant response rating (velvetleaf [6]; [19]): 70 | Plant response rating, Velvetleaf (velvetleaf [6]; [16]): 10 | Plant response rating, Lambsquarters (lambsquarters; [17]): 80 | Lambsquarters plant response rating (lambsquarters; [19]): 70 | Plant response rating, Lambsquarters (lambsquarters; [16]): 0 | Rice plant response rating (rice): 40 | Plant response rating, Pigweed (pigweed; [17]): 90 | Pigweed plant response rating (pigweed; [19]): 80 | Plant response rating, Pigweed (pigweed; [16]): 0 | Plant response rating, Blackgrass (blackgrass; Postemergence): 30 | Blackgrass plant response rating (blackgrass; postemergence, visual rating): 20 | Plant response rating, Cocklebur (cocklebur; [17]): 100 | Cocklebur plant response rating (cocklebur; [18]): 0 | Cocklebur plant response rating (cocklebur; [19]): 80 | Plant response rating, Cocklebur (cocklebur; [16]): 0 | Plant response rating, Foxtail, Giant (giant foxtail [7]; [17]): 30 | Foxtail, Giant plant response rating (giant foxtail [7]; [18]): 30 | Foxtail, Giant plant response rating (giant foxtail [7]; [19]): 30 | Plant response rating, Foxtail, Giant (giant foxtail [7]; [16]): 10 | Plant response rating, Oat, Wild (wild oat; Postemergence): 20 | Oat, Wild plant response rating (wild oat; postemergence, visual rating): 10 | Plant response rating, Surinam Grass (Surinam grass; [17]): 20 | Surinam Grass plant response rating (Surinam grass; [19]): 20 | Plant response rating, Surinam Grass (Surinam grass; [16]): 0 | Plant response rating, Velvetleaf (velvetleaf [8]; [14]): 50 | Velvetleaf plant response rating (velvetleaf [8]; [15]): 30 | Velvetleaf plant response rating (velvetleaf [8]; 2000 g ai/ha, visual rating, 0 to 100 scale (0 no effect, 100 complete control)): 50 | Plant response rating, Morningglory (morningglory [9]; [13]): 15 | Plant response rating, Morningglory (morningglory [9]; [14]): 25 | Morningglory plant response rating (morningglory [9]; [15]): 25 | Morningglory plant response rating (morningglory [9]; [14]): 40 | Plant response rating, Morningglory (morningglory [10]; [16]): 0 | Plant response rating, Wheat (wheat): 30 | Wheat plant response rating (wheat; postemergence, 125 g ai/ha, visual rating): 30 | Barnyardgrass plant response rating (barnyardgrass [11]): 30 | Ducksalad plant response rating (ducksalad): 30 | Plant response rating, Barnyardgrass (barnyardgrass [12]; [17]): 30 | Barnyardgrass plant response rating (barnyardgrass [12]; [18]): 0 | Barnyardgrass plant response rating (barnyardgrass [12]; [19]): 30 | Plant response rating, Barnyardgrass (barnyardgrass [12]; [16]): 0

CCCCn1nc(C(C)(C)C)cc1C(=O)Nc1cccc(C(=O)N(CC)CC)c1 [Compound 40]
Plant response rating, Pigweed (redroot pigweed; [13]): 0 | Plant response rating, Pigweed (redroot pigweed; [14]): 0 | Pigweed plant response rating (redroot pigweed; [15]): 0 | Pigweed plant response rating (redroot pigweed; [14]): 15 | Plant response rating, Foxtail, Giant (giant foxtail [1]; [13]): 0 | Plant response rating, Foxtail, Giant (giant foxtail [1]; [14]): 0 | Foxtail, Giant plant response rating (giant foxtail [1]; [15]): 0 | Foxtail, Giant plant response rating (giant foxtail [1]; [14]): 5 | Plant response rating, Crabgrass, Large (large crabgrass [2]; [13]): 15 | Plant response rating, Crabgrass, Large (large crabgrass [2]; [14]): 0 | Crabgrass, Large plant response rating (large crabgrass [2]; [15]): 5 | Crabgrass, Large plant response rating (large crabgrass [2]; [14]): 15 | Plant response rating, Barnyardgrass (barnyardgrass [3]; [13]): 0 | Plant response rating, Barnyardgrass (barnyardgrass [3]; [14]): 0 | Barnyardgrass plant response rating (barnyardgrass [3]; [15]): 0 | Barnyardgrass plant response rating (barnyardgrass [3]; [14]): 15 | Sedge, Umbrella plant response rating [4]: 30 | Corn plant response rating (corn): 0 | Crabgrass, Large plant response rating (large crabgrass [5]; [20]): 10 | Plant response rating, Crabgrass, Large (large crabgrass [5]; [17]): 20 | Crabgrass, Large plant response rating (large crabgrass [5]; [18]): 70 | Plant response rating, Velvetleaf (velvetleaf [6]; [17]): 20 | Velvetleaf plant response rating (velvetleaf [6]; [18]): 10 | Plant response rating, Velvetleaf (velvetleaf [6]; [16]): 0 | Lambsquarters plant response rating (lambsquarters; [20]): 40 | Plant response rating, Lambsquarters (lambsquarters; [17]): 70 | Lambsquarters plant response rating (lambsquarters; [18]): 80 | Plant response rating, Lambsquarters (lambsquarters; [16]): 40 | Rice plant response rating (rice): 0 | Plant response rating, Pigweed (pigweed; [17]): 60 | Pigweed plant response rating (pigweed; [18]): 60 | Plant response rating, Pigweed (pigweed; [16]): 30 | Blackgrass plant response rating (blackgrass; Postemergence): 10 | Plant response rating, Blackgrass (blackgrass; Postemergence): 20 | Cocklebur plant response rating (cocklebur; [20]): 10 | Plant response rating, Cocklebur (cocklebur; [17]): 50 | Cocklebur plant response rating (cocklebur; [18]): 0 | Foxtail, Giant plant response rating (giant foxtail [7]; [20]): 0 | Plant response rating, Foxtail, Giant (giant foxtail [7]; [17]): 20 | Foxtail, Giant plant response rating (giant foxtail [7]; [18]): 10 | Plant response rating, Foxtail, Giant (giant foxtail [7]; [16]): 0 | Oat, Wild plant response rating (wild oat; Postemergence): 0 | Plant response rating, Oat, Wild (wild oat; Postemergence): 10 | Plant response rating, Surinam Grass (Surinam grass; [17]): 20 | Surinam Grass plant response rating (Surinam grass; [18]): 10 | Plant response rating, Surinam Grass (Surinam grass; [16]): 0 | Plant response rating, Velvetleaf (velvetleaf [8]; [13]): 0 | Plant response rating, Velvetleaf (velvetleaf [8]; [14]): 0 | Velvetleaf plant response rating (velvetleaf [8]; [15]): 5 | Velvetleaf plant response rating (velvetleaf [8]; [14]): 15 | Plant response rating, Morningglory (morningglory [9]; [13]): 0 | Plant response rating, Morningglory (morningglory [9]; [14]): 0 | Morningglory plant response rating (morningglory [9]; [15]): 5 | Morningglory plant response rating (morningglory [9]; [14]): 10 | Morningglory plant response rating (morningglory [10]; [18]): 10 | Plant response rating, Wheat (wheat): 30 | Barnyardgrass plant response rating (barnyardgrass [11]): 0 | Ducksalad plant response rating (ducksalad): 0 | Barnyardgrass plant response rating (barnyardgrass [12]; [20]): 10 | Plant response rating, Barnyardgrass (barnyardgrass [12]; [17]): 10 | Barnyardgrass plant response rating (barnyardgrass [12]; [18]): 40

From patent publication US20060069132A1, “Azolecarboxamide herbicides” (priority 2004, published 2006)
